ChEMBL document CHEMBL1122626, “(+/-)-4-Aryl-4,5-dihydro-3H-1,3-benzodiazepines. 3. 2-Phenyl and 2-amino analogues as potential antihypertensive agents” (1984)

Columns and labels:
[1] = test system: Rattus norvegicus; experiment: Antihypertensive activity was evaluated in spontaneously hypertensive rat model with base line systolic pressure of 189 mmHg by the indirect tail-cuff method at an oral screening dose of 50 mg/kg.; assay type: functional, Blood
[2] = test system: Rattus norvegicus; experiment: Antihypertensive activity was evaluated in spontaneously hypertensive rat model with base line systolic pressure of 174 mmHg by the indirect tail-cuff method at an oral screening dose of 50 mg/Kg; assay type: functional, Blood

CN1C(c2ccccc2)=Nc2ccccc2CC1c1ccccc1.Cl (configuration not stated)
BP [1]: -56 mmHg

N=C(N)NCCN1CCCCCCC1 [GUANETHIDINE]
BP [2]: -20 mmHg
